Experimental data from ChEMBL document CHEMBL4184211, “Regioselectivity of thiouracil alkylation: Application to optimization of Darapladib synthesis” (Bioorg Med Chem Lett, 2018).

How the values were obtained:
[1] = target: T1, Platelet-activating factor acetylhydrolase (Homo sapiens, UniProt Q13093); assay: (§1) Inhibition of Lp-PLA2 in human plasma LDL fractions using 2-thio platelet-activating factor as substrate by […] dye based spectrophotometry
T1 sequence (Q13093 whole entry): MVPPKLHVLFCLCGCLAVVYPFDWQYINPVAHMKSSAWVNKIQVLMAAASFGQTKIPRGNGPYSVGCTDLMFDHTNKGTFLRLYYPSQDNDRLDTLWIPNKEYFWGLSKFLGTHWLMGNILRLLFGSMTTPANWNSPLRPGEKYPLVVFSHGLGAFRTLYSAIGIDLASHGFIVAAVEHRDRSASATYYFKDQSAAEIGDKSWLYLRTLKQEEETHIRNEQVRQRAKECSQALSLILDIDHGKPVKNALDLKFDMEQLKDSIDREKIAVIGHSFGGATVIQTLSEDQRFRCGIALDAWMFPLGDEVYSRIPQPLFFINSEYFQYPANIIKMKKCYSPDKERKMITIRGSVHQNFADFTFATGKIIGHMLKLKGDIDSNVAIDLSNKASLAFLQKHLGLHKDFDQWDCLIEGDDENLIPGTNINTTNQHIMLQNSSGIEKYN

[2] = target: T2, Platelet-activating factor acetylhydrolase (Homo sapiens) (UniProt Q13093); assay: as §1
T2 sequence (whole entry): T1 sequence (Q13093 whole entry)

Row | SMILES | IC50 ([1]; read-out: IC50) [nM] | IC50 [1] | inhibition [2]
1 | CCN(CC)CCN(Cc1ccc(-c2ccc(C(F)(F)F)cc2)cc1)C(=O)COc1nc(SCc2ccc(F)cc2)nc2c1CCC2 | > 100 | – | –
2 | CC(C)(C)OC(=O)COc1nc(SCc2ccc(F)cc2)nc2c1CCC2 | – | Not Active | –
3 | CC(C)(C)OC(=O)Cn1c(SCc2ccc(F)cc2)nc(=O)c2c1CCC2 | 52.4 | – | Dose-dependent effect
